The target of one data set is mouse OCTs. The conditions noted are these: read-out: inhibition constant Ki; cited from earlier work.
In data set [1] the test system is CYP2D6. The conditions noted are these: cimetidine ref 39; metoclopramide ref 10, 11; cited from earlier work.
The target of another data set is mouse MATEs. The conditions noted are these: read-out: inhibition constant Ki; cited from earlier work.
For data set [2], the system named is cation transporters (OCTs, MATEs). The data set is described as follows: [^11C]Metoclopramide PET in C57BL/6 wild-type mice without and with unlabeled metoclopramide, cimetidine or sulpiride. The procedure:
(§1) PET imaging was performed under isoflurane/air anesthesia and animals were warmed throughout the experiment while constantly monitoring body temperature and respiratory rate. A microPET Focus220 scanner (Siemens Medical Solutions, Knoxville, TN, USA) was used for PET imaging. […] List mode data were acquired with a timing window of 6 ns and an energy window of 250–750 keV. At the end of the PET scans, blood was collected from the retro-bulbar plexus and animals were killed by cervical dislocation. Blood was centrifuged to obtain plasma and aliquots of blood and plasma were counted for radioactivity in a gamma counter.
Using the medical image data examiner software AMIDE ([33]), the left ventricle of the heart (image-derived arterial blood curve), brain, liver, left kidney and urinary bladder were manually outlined as regions of interest on the PET images, guided by representative magnetic resonance images obtained for a few animals on a 1-T benchtop MR scanner (ICON; Bruker BioSpin GmbH), to derive concentration-time curves expressed in units of percent injected dose per mL (%ID/mL).
The area under the concentration-time curves (AUC, %ID/mL x min) was calculated for each region of interest using Prism 8 Software (GraphPad, La Jolla, CA, USA). […] VE is the y-intercept of the integration plot. CLint,urine was obtained by performing linear regression analysis of a plot of Xint,urine versus AUC0-t,kidney and calculating the slope of the regression line.
The plasma concentration was obtained by multiplying the concentration in the left ventricle of the heart by the plasma/blood radioactivity ratio, determined from the blood sample collected at the end of the PET scan.

The conditions of data set [3]: mean ± SD. The procedure:
Blood was centrifuged to obtain plasma, the liver and the kidneys were removed and urine was collected. Proteins were precipitated by the addition of acetonitrile (1 μL/μL plasma; 1000 μL for the liver, 200 μL for the kidneys and 0.5 μL/μL urine). All solutions were vortexed and centrifuged. […] Detection was performed by placing the TLC plates on multisensitive phosphor screens (PerkinElmer Life Sciences, Waltham, MA). The screens were scanned at 300 dpi resolution using a PerkinElmer Cyclone® Plus Phosphor Imager (Perkin-Elmer Life Sciences).
as §1

For a further data set, the system named is human OCT1. The conditions noted are these: cited from earlier work.
For data set [4], the system named is CYP2D6. The arrangement: method as in PMID 21740075. Particulars: orally administered, humans, estimated; cited from earlier work.
Data set [5] deals with human P-glycoprotein (P-gp/ABCB1). The conditions noted are these: cited from earlier work.
The conditions of data set [6]: single oral or intravenous dose; cited from earlier work.
The conditions of data set [7]: cited from earlier work.
Where [8] appears, read: integration plot 0.4 to 4 min, range over baseline and treatment groups, C57BL/6 mice.
The mark [9] stands for this setting: C57BL/6 female mice, baseline, 15 min after radiotracer injection.
Where [10] appears, read: C57BL/6 female mice, cimetidine (150 mg/kg), 15 min.
Setting [11] is: FVB male/female Slc22a1/2^(−/−) mice, 15 min.
Setting [12] is: FVB male/female wild-type mice, 15 min.

Where two headings read alike, the source gives them in different places. Bounds are passed on as bounds.

`CN/C(=N/CCSCc1nc[nH]c1C)NC#N` [cimetidine]: the values for the inhibition constant Ki at mouse OCTs and at mouse MATEs were 54 to 143 µM and 1 to 4 µM, respectively. Besides, in the data set with CYP2D6 [1], the CYP2D6 inhibition result is given as “potent”.

Take `CCN(CC)CCNC(=O)c1cc(Cl)c(N)cc1O[11CH3]` [[^11C]metoclopramide]: the “Maximum amount of radioactivity in the kidneys” value in [2] (C57BL/6 wild-type mice, assuming average mouse organ volumes from literature) was “approximately 17 % of the injected dose”. Moreover, the “Time to maximum concentration of radioactivity in the kidneys and liver” value in [2] (C57BL/6 wild-type mice, i.v. microdose) is listed as ≤ 5 min. Further, the “Amount of radioactivity excreted into the urinary bladder” value in data set [2] (end of the 90-min PET scan) is “approximately 45 % of the injected dose”. The “kuptake,kidney (rate constant for uptake of total radioactivity from blood into the kidneys)” value in data set [2] (setting [8]) was 0.5–1 mL/min/mL kidney. In [2] (setting [8]), the “kuptake,liver (rate constant for uptake of total radioactivity from blood into the liver)” value is given as 0.2–0.6 mL/min/mL liver. The “Decrease of urinary excretion” value in data set [2] (the different investigated treatments vs baseline, wild-type mice) is reported as “up to 3.8 fold”. Moreover, the “Percentage of unchanged [^11C]metoclopramide in kidney” value was found to be 64 ± 6% in data set [3] (setting [9]); 96 ± 2 % in [3] (setting [10]); 74 ± 4% in [3] (C57BL/6 female mice, co-administration of unlabeled metoclopramide (5 mg/kg), 15 min); 72 ± 8% in [3] (setting [11]); 70 ± 20% in data set [3] (setting [12]). Moreover, the “Percentage of unchanged [^11C]metoclopramide in urine” value is recorded as 29 ± 4% in data set [3] (setting [9]); 87 ± 4 % in [3] (setting [10]); 36 ± 5% in [3] (C57BL/6 female mice, sulpiride (25 mg/kg), 15 min); 48 ± 10% in data set [3] (setting [11]); 64 ± 22% in data set [3] (setting [12]).

`CCN(CC)CCNC(=O)c1cc(Cl)c(N)cc1OC` [metoclopramide]: the “Share of cellular uptake related to OCT1 activity” value in the data set with human OCT1 (human OCT1 transfected cell line) is 45%. Further, in the data set with human OCT1 (in vitro), the “Substrate of human OCT1” value is “substrate”. Besides, in the data set on CYP2D6 [4], the “Share of total clearance accounted for by CYP2D6 metabolism” value is 44%. Also, in data set [5], the “Substrate of human P-gp” value is “weak substrate”. In the data set with CYP2D6 [1], the CYP2D6 inhibition result is “potent inhibitor”. Also, the “Fraction of dose excreted unchanged in urine” value in data set [6] was “Approximately 20%”. Moreover, the pKa (usually the negative logarithm of the acid dissociation constant) in [7] is 9.71. The “Fraction in protonated form” value in data set [7] (physiological pH) was “more than 99%”.

Values taken from article PMC7902338 (Pharmaceutical Research, 2021).
